Test results from US10464904B2, “Dextrorphan-derivatives with suppressed central nervous activity” (Heinrich-Heine-Universität Düsseldorf, priority 2015, dated 2019).

Assay: Rotarod test, time on rod
Type: in vivo, C57BL/6 mice
Details: mice, 30 minutes after i.p. injection
Protocol: FIG. 6: Time that C57BL/6 mice stayed on rod 30 minutes after i.p. injection of PBS without (control) or with either 50 μg g^−1 body weight DXO or 100 μg g^−1 body weight compound (4); n=5 male mice each. Significance determined by Student's t-test. *P<0.05. All values are mean±SD.

Compound: CN1CC[C@@]23CCCC[C@@H]2[C@@H]1Cc1ccc(O)cc13 [dextrorphan, (+)-17-methyl-9α,13α,14α-morphinan-3-ol]
- coordination deficits in rotarod test: does
